Measured values as given in article PMC12125794 (Annals of Clinical Microbiology and Antimicrobials, 2025).

How the values were obtained:
KPC-2 [1] = molecular target: T1, KPC-2 (Klebsiella pneumoniae, UniProt Q9F663); assay type: biochemical
KPC-2 [2] = molecular target: T1, KPC-2; assay type: biochemical; remark: listed apart in the source

T1 sequence (Q9F663 25-293 limits assumed): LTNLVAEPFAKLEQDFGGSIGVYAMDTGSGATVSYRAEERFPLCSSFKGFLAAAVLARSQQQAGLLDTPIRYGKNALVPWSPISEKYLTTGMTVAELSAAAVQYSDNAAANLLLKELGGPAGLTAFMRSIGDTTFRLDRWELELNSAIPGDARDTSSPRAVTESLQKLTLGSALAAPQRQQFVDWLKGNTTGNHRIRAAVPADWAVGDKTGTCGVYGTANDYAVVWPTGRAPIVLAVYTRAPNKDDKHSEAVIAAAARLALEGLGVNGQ

Row | SMILES | hydrolysis progress curves at 300 nm, 30 nM purified enzyme, 50 μM meropenem (KPC-2 [1]) | steady-state hydrolysis kinetics (Michaelis-Menten), purified enzyme (KPC-2 [2])
1 | C[C@@H](O)[C@H]1C(=O)N2C(C(=O)O)=C(S[C@@H]3CN[C@H](C(=O)N(C)C)C3)[C@H](C)[C@H]12 [meropenem] | Compared with KPC-2, catalytic efficiencies of KPC-87 for nitrocefin and meropenem decreased sharply | –
2 | O=C(Cc1cccs1)N[C@@H]1C(=O)N2C(C(=O)O)=C(/C=C/c3ccc([N+](=O)[O-])cc3[N+](=O)[O-])CS[C@H]12 [nitrocefin] | – | Compared with KPC-2, catalytic efficiencies of KPC-87 for nitrocefin and meropenem decreased sharply
